Source: the supplement of paper PMC10307832

Key:
Assay in all cases: relative viability (nuclei count vs DMSO), 5 days (fraction); higher = more cells survive
NCI-H2009 = tested on: NCI-H2009
Procedure, shortened: (§1)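 Medians of duplicate plates are given as relative viability. That measure is the nuclei count in treated wells divided by the count in vehicle wells. Counts were taken on 4× images of lung cancer cell lines in 1536-well plates, 5 days after pin-tool dosing the day after seeding with one drug alone or a fixed anchor-drug dose plus five library-drug doses (not always all listed) in √10 steps.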

NCI-H1395 = tested on: NCI-H1395
Procedure, shortened: as §1

BEN = tested on: BEN
Procedure, shortened: as §1

NCI-H2228 = tested on: NCI-H2228
Procedure, shortened: as §1

201T = tested on: 201T
Procedure, shortened: as §1

LU99A = tested on: LU99A
Procedure, shortened: as §1

NCI-H650 = tested on: NCI-H650
Procedure, shortened: as §1

HCC-15 = tested on: HCC-15
Procedure, shortened: as §1

NCI-H2126 = tested on: NCI-H2126
Procedure, shortened: as §1

EPLC-272H = tested on: EPLC-272H
Procedure, shortened: as §1

LCLC-97TM1 = tested on: LCLC-97TM1
Procedure, shortened: as §1

NCI-H838 = tested on: NCI-H838
Procedure, shortened: as §1

NCI-H322M = tested on: NCI-H322M
Procedure, shortened: as §1

HCC-78 = tested on: HCC-78
Procedure, shortened: as §1

NCI-H661 = tested on: NCI-H661
Procedure, shortened: as §1

NCI-H23 = tested on: NCI-H23
Procedure, shortened: as §1

NCI-H647 = tested on: NCI-H647
Procedure, shortened: as §1

NCI-H1355 = tested on: NCI-H1355
Procedure, shortened: as §1

NCI-H2085 = tested on: NCI-H2085
Procedure, shortened: as §1

NCI-H460 = tested on: NCI-H460
Procedure, shortened: as §1

NCI-H2342 = tested on: NCI-H2342
Procedure, shortened: as §1

NCI-H2405 = tested on: NCI-H2405
Procedure, shortened: as §1

PC-14 = tested on: PC-14
Procedure, shortened: as §1

**Q.** Which results are given for `CCNC(=O)c1noc(-c2cc(C(C)C)c(O)cc2O)c1-c1ccc(CN2CCOCC2)cc1` [Luminespib] + Cc1cc(Nc2cc(N3CCN(C)CC3)nc(Sc3ccc(NC(=O)C4CC4)cc3)n2)n[nH]1 [Tozasertib] (partner 0.1 µM)?
**A.** relative viability (NCI-H2009; first compound 0.002 µM): 0.766; relative viability (NCI-H2009; first compound 0.006325 µM): 0.746; relative viability (NCI-H2009; first compound 0.02 µM): 0.798; relative viability (NCI-H2009; first compound 0.06325 µM): 0.28; relative viability (NCI-H2009; first compound 0.2 µM): 0.114; relative viability (NCI-H1395; first compound 0.002 µM): 0.783; relative viability (NCI-H1395; first compound 0.006325 µM): 0.693; relative viability (NCI-H1395; first compound 0.02 µM): 0.676; relative viability (NCI-H1395; first compound 0.06325 µM): 0.386; relative viability (NCI-H1395; first compound 0.2 µM): 0.322; relative viability (BEN; first compound 0.002 µM): 0.554; relative viability (BEN; first compound 0.006325 µM): 0.458; relative viability (BEN; first compound 0.02 µM): 0.475; relative viability (BEN; first compound 0.06325 µM): 0.37; relative viability (BEN; first compound 0.2 µM): 0.383; relative viability (NCI-H2228; first compound 0.002 µM): 0.353; relative viability (NCI-H2228; first compound 0.006325 µM): 0.274; relative viability (NCI-H2228; first compound 0.02 µM): 0.139; relative viability (NCI-H2228; first compound 0.06325 µM): 0.101; relative viability (NCI-H2228; first compound 0.2 µM): 0.136; relative viability (201T; first compound 0.002 µM): 0.988; relative viability (201T; first compound 0.006325 µM): 0.907; relative viability (201T; first compound 0.02 µM): 0.665; relative viability (201T; first compound 0.06325 µM): 0.89; relative viability (201T; first compound 0.2 µM): 0.849; relative viability (LU99A; first compound 0.002 µM): 0.261; relative viability (LU99A; first compound 0.006325 µM): 0.277; relative viability (LU99A; first compound 0.02 µM): 0.252; relative viability (LU99A; first compound 0.06325 µM): 0.176; relative viability (LU99A; first compound 0.2 µM): 0.139; relative viability (NCI-H650; first compound 0.002 µM): 0.805; relative viability (NCI-H650; first compound 0.006325 µM): 0.695; relative viability (NCI-H650; first compound 0.02 µM): 0.516; relative viability (NCI-H650; first compound 0.06325 µM): 0.199; relative viability (NCI-H650; first compound 0.2 µM): 0.0951; relative viability (HCC-15; first compound 0.002 µM): 0.466; relative viability (HCC-15; first compound 0.006325 µM): 0.441; relative viability (HCC-15; first compound 0.02 µM): 0.444; relative viability (HCC-15; first compound 0.06325 µM): 0.173; relative viability (HCC-15; first compound 0.2 µM): 0.0953; relative viability (NCI-H2126; first compound 0.002 µM): 0.844; relative viability (NCI-H2126; first compound 0.006325 µM): 0.879; relative viability (NCI-H2126; first compound 0.02 µM): 0.661; relative viability (NCI-H2126; first compound 0.06325 µM): 0.5; relative viability (NCI-H2126; first compound 0.2 µM): 0.264; relative viability (EPLC-272H; first compound 0.002 µM): 0.282; relative viability (EPLC-272H; first compound 0.006325 µM): 0.296; relative viability (EPLC-272H; first compound 0.06325 µM): 0.399; relative viability (EPLC-272H; first compound 0.2 µM): 0.22; relative viability (LCLC-97TM1; first compound 0.002 µM): 0.198; relative viability (LCLC-97TM1; first compound 0.006325 µM): 0.268; relative viability (LCLC-97TM1; first compound 0.02 µM): 0.117; relative viability (LCLC-97TM1; first compound 0.06325 µM): 0.241; relative viability (LCLC-97TM1; first compound 0.2 µM): 0.214; relative viability (NCI-H838; first compound 0.002 µM): 0.272; relative viability (NCI-H838; first compound 0.006325 µM): 0.215; relative viability (NCI-H838; first compound 0.02 µM): 0.308; relative viability (NCI-H838; first compound 0.06325 µM): 0.164; relative viability (NCI-H838; first compound 0.2 µM): 0.123; relative viability (NCI-H322M; first compound 0.002 µM): 0.423; relative viability (NCI-H322M; first compound 0.006325 µM): 0.458; relative viability (NCI-H322M; first compound 0.02 µM): 0.422; relative viability (NCI-H322M; first compound 0.06325 µM): 0.331; relative viability (NCI-H322M; first compound 0.2 µM): 0.301; relative viability (HCC-78; first compound 0.002 µM): 0.399; relative viability (HCC-78; first compound 0.006325 µM): 0.273; relative viability (HCC-78; first compound 0.06325 µM): 0.467; relative viability (HCC-78; first compound 0.2 µM): 0.303; relative viability (NCI-H661; first compound 0.002 µM): 0.352; relative viability (NCI-H661; first compound 0.006325 µM): 0.358; relative viability (NCI-H661; first compound 0.02 µM): 0.348; relative viability (NCI-H661; first compound 0.06325 µM): 0.357; relative viability (NCI-H661; first compound 0.2 µM): 0.292; relative viability (NCI-H23; first compound 0.002 µM): 0.333; relative viability (NCI-H23; first compound 0.006325 µM): 0.351; relative viability (NCI-H23; first compound 0.02 µM): 0.345; relative viability (NCI-H23; first compound 0.06325 µM): 0.279; relative viability (NCI-H23; first compound 0.2 µM): 0.229; relative viability (NCI-H647; first compound 0.002 µM): 0.299; relative viability (NCI-H647; first compound 0.006325 µM): 0.274; relative viability (NCI-H647; first compound 0.02 µM): 0.431; relative viability (NCI-H647; first compound 0.06325 µM): 0.0669; relative viability (NCI-H647; first compound 0.2 µM): 0.0766; relative viability (NCI-H1355; first compound 0.002 µM): 0.518; relative viability (NCI-H1355; first compound 0.006325 µM): 0.577; relative viability (NCI-H1355; first compound 0.02 µM): 0.421; relative viability (NCI-H1355; first compound 0.06325 µM): 0.618; relative viability (NCI-H1355; first compound 0.2 µM): 0.226; relative viability (NCI-H2085; first compound 0.002 µM): 0.804; relative viability (NCI-H2085; first compound 0.006325 µM): 0.749; relative viability (NCI-H2085; first compound 0.02 µM): 0.758; relative viability (NCI-H2085; first compound 0.06325 µM): 0.879; relative viability (NCI-H2085; first compound 0.2 µM): 0.607; relative viability (NCI-H460; first compound 0.002 µM): 0.554; relative viability (NCI-H460; first compound 0.006325 µM): 0.421; relative viability (NCI-H460; first compound 0.02 µM): 0.597; relative viability (NCI-H460; first compound 0.06325 µM): 0.0212; relative viability (NCI-H460; first compound 0.2 µM): 0.0218; relative viability (NCI-H2342; first compound 0.002 µM): 0.578; relative viability (NCI-H2342; first compound 0.006325 µM): 0.576; relative viability (NCI-H2342; first compound 0.02 µM): 0.361; relative viability (NCI-H2342; first compound 0.06325 µM): 0.589; relative viability (NCI-H2342; first compound 0.2 µM): 0.334; relative viability (NCI-H2405; first compound 0.002 µM): 0.812; relative viability (NCI-H2405; first compound 0.006325 µM): 0.575; relative viability (NCI-H2405; first compound 0.02 µM): 0.808; relative viability (NCI-H2405; first compound 0.06325 µM): 0.34; relative viability (NCI-H2405; first compound 0.2 µM): 0.152; relative viability (PC-14; first compound 0.002 µM): 0.567; relative viability (PC-14; first compound 0.006325 µM): 0.547; relative viability (PC-14; first compound 0.02 µM): 0.326; relative viability (PC-14; first compound 0.06325 µM): 0.0498; relative viability (PC-14; first compound 0.2 µM): 0.0697
